Experiments:
KRAS G12C-BRAF complex = KRAS G12C-BRAF complex (Homo sapiens (Human), UniProt P01116+P62937, G12C); assay: KRAS-BRAF with CYPA (500 nM) interaction assay (TR-FRET), G12C; type: biochemical
[1] = target: KRAS G12D binding to BRAF (Homo sapiens (Human), UniProt P01116+P62937, G12D); assay: KRAS-BRAF with CYPA (500 nM) interaction assay (TR-FRET), G12D; type: biochemical
[2] = test system: phosphorylation of ERK, KRAS G12C in NCJ-H358 cells; assay: pERK inhibition assay, KRAS G12C; type: cell-based, human; conditions: Homo sapiens, 4 hours
Summary of the method: (§1)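 Cells plated the day before (NCJ-H358 30,000, AGS 20,000, SW620 30,000 per well), then exposed to compound for 4 h at 0.5% DMSO final. Fixed, permeabilized, and phospho-ERK detected by in-cell ELISA (anti-pERK, HRP secondary, TMB, OD450); IC50 from 4-parameter sigmoidal fit.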

[3] = test system: phosphorylation of ERK, KRAS G12D in AGS cells; assay: pERK inhibition assay, KRAS G12D; type: cell-based, human; conditions: Homo sapiens, 4 hours
Summary of the method: as §1

Sequence of KRAS G12C-BRAF complex (P01116-2 other isoform, or with tags, fused parts or gaps G12C): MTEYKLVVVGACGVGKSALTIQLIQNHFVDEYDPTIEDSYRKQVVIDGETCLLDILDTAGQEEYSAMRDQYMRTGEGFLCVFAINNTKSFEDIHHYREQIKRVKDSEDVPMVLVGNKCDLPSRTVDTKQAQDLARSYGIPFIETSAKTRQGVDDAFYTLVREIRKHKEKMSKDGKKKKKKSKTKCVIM
Sequence of KRAS G12C-BRAF complex (P62937 whole entry): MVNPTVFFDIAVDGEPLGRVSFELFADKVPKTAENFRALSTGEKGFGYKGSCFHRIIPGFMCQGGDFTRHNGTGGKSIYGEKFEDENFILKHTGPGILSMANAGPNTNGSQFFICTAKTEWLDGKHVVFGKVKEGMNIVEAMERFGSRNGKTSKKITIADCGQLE
Sequence of KRAS G12D binding to BRAF (P01116-2 other isoform, or with tags, fused parts or gaps G12D): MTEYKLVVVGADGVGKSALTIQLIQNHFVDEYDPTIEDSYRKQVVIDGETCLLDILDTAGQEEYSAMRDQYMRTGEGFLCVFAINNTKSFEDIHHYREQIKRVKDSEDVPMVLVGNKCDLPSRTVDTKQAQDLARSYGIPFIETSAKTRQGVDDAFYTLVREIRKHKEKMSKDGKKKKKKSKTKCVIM
Sequence of KRAS G12D binding to BRAF (P62937 whole entry): as the sequence (P62937 whole entry) above

SMILES | IC50 (KRAS G12C-BRAF complex) | IC50 [1] | IC50 [2] | IC50 [3]
CCn1c(-c2cc(N3CCOCC3)cnc2[C@H](C)OC)c2c3cc(c(F)cc31)-c1csc(n1)C[C@H](NC(=O)[C@H](C(C)C)N1CCC3(CN(C(=O)[C@H](F)Cl)C3)C1=O)C(=O)N1CCC[C@H](N1)C(=O)OCC(C)(C)C2 (atropisomer, axis not shown; (M)) [Example 52, (2S)-2-[2-[(2R)-2-chloro-2-fluoro-acetyl]-5-oxo-2,6-diazaspiro[3.4]octan-6-yl]-N-[(7S,13S)-21-ethyl-24-fluoro-(20M)-20-[2-[(1S)-1-methoxyethyl]-5-morpholino-3-pyridyl]-17,17-dimethyl-8,14-dioxo-15-oxa-4-thia-9,21,27,28-tetrazapentacyclo[17.5.2.1^2,5.1^9,13.0^22,26]octacosa-1(25),2,5(28),19,22(26),23-hexaen-7-yl]-3-methyl-butanamide] | 0.115 µM | 2.06 µM | 0.004 µM | 0.103 µM
CCn1c(-c2cc(N3CCN(CC(F)(F)F)CC3)cnc2[C@H](C)OC)c2c3cc(c(F)cc31)-c1csc(n1)C[C@H](NC(=O)[C@H](C(C)C)N(C)C(=O)C1(F)CCN(C(=O)[C@H](F)Cl)CC1)C(=O)N1CCC[C@H](N1)C(=O)OCC(C)(C)C2 (atropisomer, axis not shown; (M)) [Example 49, 1-[(2R)-2-chloro-2-fluoro-acetyl]-N-[(1S)-1-[[(7S,13S)-21-ethyl-24-fluoro-(20M)-20-[2-[(1S)-1-methoxyethyl]-5-[4-(2,2,2-trifluoroethyl)piperazin-1-yl]-3-pyridyl]-17,17-dimethyl-8,14-dioxo-15-oxa-4-thia-9,21,27,28-tetrazapentacyclo[17.5.2.1^2,5.1^9,13.0^22,26]octacosa-1(25),2,5(28),19,22(26),23-hexaen-7-yl]carbamoyl]-2-methyl-propyl]-4-fluoro-N-methyl-piperidine-4-carboxamide] | 0.015 µM | 0.444 µM | 0.003 µM | 0.065 µM
CO[C@@H](C)c1ncc(N2CCN(C)CC2)cc1-c1c2c3c(F)c(ccc3n1CC(F)(F)F)-c1csc(n1)C[C@H](NC(=O)[C@H](C(C)C)N1CCCC3(CCN(C(=O)[C@H](F)Cl)CC3)C1=O)C(=O)N1CCC[C@H](N1)C(=O)OCC(C)(C)C2 (atropisomer, axis not shown; (M)) [Example 20, (2S)-2-[9-[(2R)-2-chloro-2-fluoro-acetyl]-1-oxo-2,9-diazaspiro[5.5]undecan-2-yl]-N-[(7S,13S)-25-fluoro-(20M)-20-[2-[(1S)-1-methoxyethyl]-5-(4-methylpiperazin-1-yl)-3-pyridyl]-17,17-dimethyl-8,14-dioxo-21-(2,2,2-trifluoroethyl)-15-oxa-4-thia-9,21,27,28-tetrazapentacyclo[17.5.2.1^2,5.1^9,13.0^22,26]octacosa-1(25),2,5(28),19,22(26),23-hexaen-7-yl]-3-methyl-butanamide] | 0.148 µM | 1.24 µM | 0.005 µM | 0.098 µM
CO[C@@H](C)c1ncc(N2CCN(C)CC2)cc1-c1c2c3cc(c(F)cc3n1CC(F)(F)F)-c1cc(O)cc(c1)C[C@H](NC(=O)[C@H](C(C)C)N(C)C(=O)[C@H]1CCN(C(=O)[C@H](F)Cl)C1)C(=O)N1CCC[C@H](N1)C(=O)OCC(C)(C)C2 (atropisomer, axis not shown; (M)) [Example 8, (3S)-1-[(2R)-2-chloro-2-fluoro-acetyl]-N-[(1S)-1-[[(8S,14S)-25-fluoro-4-hydroxy-(21M)-21-[2-[(1S)-1-methoxyethyl]-5-(4-methylpiperazin-1-yl)-3-pyridyl]-18,18-dimethyl-9,15-dioxo-22-(2,2,2-trifluoroethyl)-16-oxa-10,22,28-triazapentacyclo[18.5.2.1^2,6.1^10,14.0^23,27]nonacosa-1(26),2,4,6(29),20,23(27),24-heptaen-8-yl]carbamoyl]-2-methyl-propyl]-N-methyl-pyrrolidine-3-carboxamide] | 0.003 µM | 0.085 µM | 0.002 µM | 0.09 µM
CO[C@@H](C)c1ncc(N2CCN(C)CC2)cc1-c1c2c3cc(c(F)cc3n1CC(F)(F)F)-c1csc(n1)C[C@H](NC(=O)[C@H](C(C)C)N1CCC[C@]3(CCN(C(=O)[C@H](F)Cl)C3)C1=O)C(=O)N1CCC[C@H](N1)C(=O)OCC(C)(C)C2 (single isomer, unassigned) [Example 18] | 0.071 µM | 1.66 µM | 0.003 µM | 0.026 µM
CO[C@@H](C)c1ncc(N2CCN(C)CC2)cc1-c1c2c3cc(c(F)cc3n1CC(F)(F)F)-c1csc(n1)C[C@H](NC(=O)[C@H](C(C)C)N1CCC[C@@]3(CCN(C(=O)[C@H](F)Cl)C3)C1=O)C(=O)N1CCC[C@H](N1)C(=O)OCC(C)(C)C2 (single isomer, unassigned) [Example 16] | 0.1 µM | > 10 µM | 0.001 µM | 0.019 µM
CCn1c(-c2cc(N3CCOCC3)cnc2[C@H](C)OC)c2c3cc(c(F)cc31)-c1csc(n1)C[C@H](NC(=O)[C@H](C(C)C)N1CC[C@@]3(CCN(C(=O)[C@H](F)Cl)C3)C1=O)C(=O)N1CCC[C@H](N1)C(=O)OCC(C)(C)C2 (atropisomer, axis not shown; (M)) [Example 53, (2S)-2-[(5R)-7-[(2R)-2-chloro-2-fluoro-acetyl]-1-oxo-2,7-diazaspiro[4.4]nonan-2-yl]-N-[(7S,13S)-21-ethyl-24-fluoro-(20M)-20-[2-[(1S)-1-methoxyethyl]-5-morpholino-3-pyridyl]-17,17-dimethyl-8,14-dioxo-15-oxa-4-thia-9,21,27,28-tetrazapentacyclo[17.5.2.1^2,5.1^9,13.0^22,26]octacosa-1(25),2,5(28),19,22(26),23-hexaen-7-yl]-3-methyl-butanamide] | 0.056 µM | > 10 µM | 0.003 µM | 0.046 µM
CO[C@@H](C)c1ncc(N2CCN(C)CC2)cc1-c1c2c3cc(c(F)cc3n1CC(F)(F)F)-c1csc(n1)C[C@H](NC(=O)[C@H](C(C)C)N1CCCC3(CN(C(=O)[C@H](F)Cl)C3)C1=O)C(=O)N1CCC[C@H](N1)C(=O)OCC(C)(C)C2 (atropisomer, axis not shown; (M)) [Example 11, (2S)-2-[2-[(2R)-2-chloro-2-fluoro-acetyl]-5-oxo-2,6-diazaspiro[3.5]nonan-6-yl]-N-[(7S,13S)-24-fluoro-(20M)-20-[2-[(1S)-1-methoxyethyl]-5-(4-methylpiperazin-1-yl)-3-pyridyl]-17,17-dimethyl-8,14-dioxo-21-(2,2,2-trifluoroethyl)-15-oxa-4-thia-9,21,27,28-tetrazapentacyclo[17.5.2.1^2,5.1^9,13.0^22,26]octacosa-1(25),2,5(28),19,22(26),23-hexaen-7-yl]-3-methyl-butanamide] | 0.045 µM | > 10 µM | < 0.001 µM | 0.027 µM
CCn1c(-c2cc(N3CCOCC3)cnc2[C@H](C)OC)c2c3cc(c(F)cc31)-c1csc(n1)C[C@H](NC(=O)[C@H](C(C)C)N(C)C(=O)[C@H]1CCN(C(=O)[C@H](F)Cl)C1)C(=O)N1CCC[C@H](N1)C(=O)OCC(C)(C)C2 (atropisomer, axis not shown; (M)) [Example 55, (3S)-1-[(2R)-2-chloro-2-fluoro-acetyl]-N-[(1S)-1-[[(7S,13S)-21-ethyl-24-fluoro-(20M)-20-[2-[(1S)-1-methoxyethyl]-5-morpholino-3-pyridyl]-17,17-dimethyl-8,14-dioxo-15-oxa-4-thia-9,21,27,28-tetrazapentacyclo[17.5.2.1^2,5.1^9,13.0^22,26]octacosa-1(25),2,5(28),19,22(26),23-hexaen-7-yl]carbamoyl]-2-methyl-propyl]-N-methyl-pyrrolidine-3-carboxamide] | 0.04 µM | > 10 µM | 0.006 µM | 0.106 µM
CCn1c(-c2cc(N3CCOCC3)cnc2[C@H](C)OC)c2c3cc(c(F)cc31)-c1csc(n1)C[C@H](NC(=O)[C@H](C(C)C)N(C)C(=O)C1(F)CCN(C(=O)[C@H](F)Cl)CC1)C(=O)N1CCC[C@H](N1)C(=O)OCC(C)(C)C2 (atropisomer, axis not shown; (M)) [Example 54, 1-[(2R)-2-chloro-2-fluoro-acetyl]-N-[(1S)-1-[[(7S,13S)-21-ethyl-24-fluoro-(20M)-20-[2-[(1S)-1-methoxyethyl]-5-morpholino-3-pyridyl]-17,17-dimethyl-8,14-dioxo-15-oxa-4-thia-9,21,27,28-tetrazapentacyclo[17.5.2.1^2,5.1^9,13.0^22,26]octacosa-1(25),2,5(28),19,22(26),23-hexaen-7-yl]carbamoyl]-2-methyl-propyl]-4-fluoro-N-methyl-piperidine-4-carboxamide] | 0.019 µM | 0.303 µM | 0.002 µM | 0.025 µM
CCn1c(-c2cc(N3CCOCC3)cnc2[C@H](C)OC)c2c3cc(c(F)cc31)-c1csc(n1)C[C@H](NC(=O)[C@H](C(C)C)N1CC[C@]3(CCN(C(=O)[C@H](F)Cl)C3)C1=O)C(=O)N1CCC[C@H](N1)C(=O)OCC(C)(C)C2 (atropisomer, axis not shown; (M)) [Example 51, (2S)-2-[(5S)-7-[(2R)-2-chloro-2-fluoro-acetyl]-1-oxo-2,7-diazaspiro[4.4]nonan-2-yl]-N-[(7S,13S)-21-ethyl-24-fluoro-(20M)-20-[2-[(1S)-1-methoxyethyl]-5-morpholino-3-pyridyl]-17,17-dimethyl-8,14-dioxo-15-oxa-4-thia-9,21,27,28-tetrazapentacyclo[17.5.2.1^2,5.1^9,13.0^22,26]octacosa-1(25),2,5(28),19,22(26),23-hexaen-7-yl]-3-methyl-butanamide] | 0.074 µM | > 10 µM | 0.002 µM | 0.062 µM

— patent US20250206761A1, “HALOINDOLE MACROCYCLIC COMPOUNDS FOR THE TREATMENT OF CANCER” (Hoffmann-La Roche Inc., priority 2022, published 2025)
